Experiments:
Format in all cases: physicochemical
Hygroscopicity by DVS = settings: for 1st Desorp. (%) / 1st Sorp. (%) / 2nd Desorp. (%) / 2nd Sorp. (%): DVS 25° C.
Procedure: • Method 1 (for I-1 Form A and I-3 Form A) • Instrument Intrinsic, Advantage or Adventure • Total gas flow 200 sccm • Oven temperature 25° C. • Solvent Water • Method Cycle: 40-0-95-0-40% RH • Stage Step: 10% • Equilibrium: 0.002 dm/dt (%/min) • Minimum dm/dt stability duration: 60 min • Maximum dm/dt stage time: 360 min • Method 2 (for I-4 Form A) • Instrument Intrinsic, Advantage or Adventure • Total gas flow 200 sccm • Oven temperature 25° C. • Solvent Water • Method Cycle: 40-95-0-95-40% RH • Stage Step: 10% • Equilibrium: 0.002 dm/dt (%/min) • Minimum dm/dt stability duration: 60 min • Maximum dm/dt stage time: 360 min
I-1 Form A is hygroscopic. It absorbs about 5.5% water by weight from 40% RH to 95% RH. […] It absorbs about 40% water by weight from 40% RH to 95% RH. Form changed after the DVS test. […] It starts to absorb water when RH>40% and potential hydrate form generates at high humidity based on DVS data. The sorption and desorption are reversible.
Water sorption and desorption behavior of I-1 Form A, I-3 Form A, and I-4 Form A was investigated by DVS at 25° C. with a cycle of 40-0-95-0-40% RH, dm/dt 0.002, min. equilibration time 60 min and max. equilibration time 360 min. XRPD was measured after the DVS test to determine form change.

Bulk stability (1 week) = assay: Bulk stability (1 week); parameters: key to CL (color): A: No change of color; B: Slight discoloration; C: Medium discoloration; D: Strong discoloration; DC: complete decomposition; settings: for CL (color) / Bulk (HPLC) chiral purity / Bulk (HPLC) purity / Bulk (XRPD): Solid state, 1 week
Procedure: Bulk stability of I-1 Form A and the 2 salt candidates was investigated at 25° C./92% RH in an open container, at 40° C./75% RH in an open container and at 60° C. in a tight container over 1 week. […] All the 3 salts show no obvious racemization based on chiral purity results.
I-1 Form A and the 2 salts were placed at 25° C./92% RH in an open container, at 40° C./75% RH in an open container and at 60° C. in a closed container for I week. Samples after I week were characterized by XRPD and HPLC and inspected for color change.

[1] = Salt screening (XRPD, chiral purity of hits)
Procedure: Based on the pKa of I-1 free form, 23 counter ions were selected as salt/cocrystal forming agents. Methanol, acetone and isopropyl acetate were used as screening solvents. 1.0 equivalent of selected counter ions/coformers was applied for salt screening. Slurry equilibration, slow evaporation and anti-solvent addition were used as crystallization methods. In total, about 70 screening experiments were conducted.
About 50 mg of I-1 Form A were added to a suitable amount of solvent and 1.0 equivalent of counter ions were added under stirring at 50° C. for 2 hours and then at 25° C. for at least 12 hours. MeOH, acetone and IPAc were used as screening solvents.
Obtained suspensions were taken out and centrifuged. Solids obtained were analyzed by XRPD and salt screening results were summarized in Table 5.1, Table 5.2, and Table 5.3.

[2] = Salt candidates risk matrix (summary)
[3] = 25° C./92% RH, open container, listed as I-1 Form A
[4] = 40° C./75% RH, open container, listed as I-1 Form A
[5] = 60° C., tight container, listed as I-1 Form A
[6] = before storage, listed as I-1 Form A

SMILES: N#Cc1c(-c2cc(NC(=O)c3cc(F)cc(C(F)(F)F)c3)c3c(c2)C(=O)N[C@H]3c2cc(F)ccc2Cl)ccc2ncnn12 [Compound I-1, (R)-N-(3-(2-chloro-5-fluorophenyl)-6-(5-cyano-[1,2,4]triazolo[1,5-a]pyridin-6-yl)-1-oxoisoindolin-4-yl)-3-fluoro-5-(trifluoromethyl)benzamide]
- 1st Desorp. (%) (Hygroscopicity by DVS; 0% RH, listed as I-1 Form A): 0.17%
- 1st Sorp. (%) (Hygroscopicity by DVS; 0% RH, listed as I-1 Form A): 0.17%
- 2nd Desorp. (%) (Hygroscopicity by DVS; 0% RH, listed as I-1 Form A): 0.001%
- 2nd Sorp. (%) (Hygroscopicity by DVS; 0% RH, listed as I-1 Form A): 0.001%
- 2nd Desorp. (%) (Hygroscopicity by DVS; 10% RH): 0.11%
- 1st Desorp. (%) (Hygroscopicity by DVS; 10% RH, listed as I-1 Form A): 0.25%
- 1st Sorp. (%) (Hygroscopicity by DVS; 10% RH, listed as I-1 Form A): 0.23%
- 2nd Sorp. (%) (Hygroscopicity by DVS; 10% RH, listed as I-1 Form A): 0.08%
- 1st Desorp. (%) (Hygroscopicity by DVS; 20% RH, listed as I-1 Form A): 0.33%
- 1st Sorp. (%) (Hygroscopicity by DVS; 20% RH, listed as I-1 Form A): 0.29%
- 2nd Desorp. (%) (Hygroscopicity by DVS; 20% RH, listed as I-1 Form A): 0.21%
- 2nd Sorp. (%) (Hygroscopicity by DVS; 20% RH, listed as I-1 Form A): 0.15%
- 1st Desorp. (%) (Hygroscopicity by DVS; 30% RH, listed as I-1 Form A): 0.42%
- 1st Sorp. (%) (Hygroscopicity by DVS; 30% RH, listed as I-1 Form A): 0.35%
- 2nd Desorp. (%) (Hygroscopicity by DVS; 30% RH, listed as I-1 Form A): 0.33%
- 2nd Sorp. (%) (Hygroscopicity by DVS; 30% RH, listed as I-1 Form A): 0.22%
- 1st Desorp. (%) (Hygroscopicity by DVS; 40% RH, listed as I-1 Form A): 0.52%
- 1st Sorp. (%) (Hygroscopicity by DVS; 40% RH, listed as I-1 Form A): 0.42%
- 2nd Desorp. (%) (Hygroscopicity by DVS; 40% RH, listed as I-1 Form A): 0.51%
- 2nd Sorp. (%) (Hygroscopicity by DVS; 40% RH, listed as I-1 Form A): 0.32%
- 1st Sorp. (%) (Hygroscopicity by DVS; 50% RH, listed as I-1 Form A): 0.54%
- 2nd Desorp. (%) (Hygroscopicity by DVS; 50% RH, listed as I-1 Form A): 0.92%
- 1st Sorp. (%) (Hygroscopicity by DVS; 60% RH, listed as I-1 Form A): 0.71%
- 2nd Desorp. (%) (Hygroscopicity by DVS; 60% RH, listed as I-1 Form A): 1.30%
- 1st Sorp. (%) (Hygroscopicity by DVS; 70% RH, listed as I-1 Form A): 1.02%
- 2nd Desorp. (%) (Hygroscopicity by DVS; 70% RH, listed as I-1 Form A): 1.62%
- 1st Sorp. (%) (Hygroscopicity by DVS; 80% RH, listed as I-1 Form A): 1.84%
- 2nd Desorp. (%) (Hygroscopicity by DVS; 80% RH, listed as I-1 Form A): 2.15%
- 1st Sorp. (%) (Hygroscopicity by DVS; 90% RH, listed as I-1 Form A): 3.24%
- 2nd Desorp. (%) (Hygroscopicity by DVS; 90% RH, listed as I-1 Form A): 3.56%
- 1st Sorp. (%) (Hygroscopicity by DVS; 95% RH, listed as I-1 Form A): 5.90%
- 2nd Desorp. (%) (Hygroscopicity by DVS; 95% RH, listed as I-1 Form A): 5.90%
- hygroscopicity (Hygroscopicity by DVS; DVS at 25° C., listed as I-1 Form A): hygroscopic
- water absorbed (Hygroscopicity by DVS; from 40% RH to 95% RH, 25° C., listed as I-1 Form A): about 5.5 % water by weight
- form after the DVS test (XRPD) (Hygroscopicity by DVS; listed as I-1 Form A): no form and crystallinity change
- Chemical stability (Bulk stability (1 week); [2]): Stable
- Physical stability (Bulk stability (1 week); [2]): Stable
- CL (color) (Bulk stability (1 week); 25° C./92% RH, open container): A
- Bulk (HPLC) chiral purity (Bulk stability (1 week); [3]): 98.9%
- Bulk (HPLC) purity (Bulk stability (1 week); [3]): 99.0%/
- Bulk (XRPD) (Bulk stability (1 week); [3]): No form change
- CL (color) (Bulk stability (1 week); 40° C./75% RH, open container): A
- Bulk (HPLC) chiral purity (Bulk stability (1 week); [4]): 98.9%
- Bulk (HPLC) purity (Bulk stability (1 week); [4]): 99.0%/
- Bulk (XRPD) (Bulk stability (1 week); [4]): No form change
- Bulk (XRPD) (Bulk stability (1 week); 60° C., tight container): No form change
- CL (color) (Bulk stability (1 week); 60° C., tight container): A
- Bulk (HPLC) chiral purity (Bulk stability (1 week); [5]): 98.9%
- Bulk (HPLC) purity (Bulk stability (1 week); [5]): 99.0%/
- Chiral purity (initial) (Bulk stability (1 week); [6]): 99.0%
- Initial purity by HPLC (Bulk stability (1 week); [6]): 99.0%
- Salt screening result (slurry crystallization) ([1]; 1.0 equiv. HCl, Isopropyl acetate (second block of table)): clear solution
- Salt screening result (slurry crystallization) ([1]; 1.0 equiv. HCl, MeOH): − (I-1 Form A) (Free form, counter ions, or physical mixtures)
- Salt screening result (slurry crystallization) ([1]; 1.0 equiv. Hydrobromic acid, Acetone): thin suspension
- Salt screening result (anti-solvent) ([1]; 1.0 equiv. Hydrobromic acid, Acetone/MTBE): thin suspension
- Salt screening result (anti-solvent) ([1]; 1.0 equiv. Hydrobromic acid, IPAc/MTBE): thin suspension
- Salt screening result (slurry crystallization) ([1]; 1.0 equiv. Hydrobromic acid, Isopropyl acetate): clear solution
- Salt screening result (slurry crystallization) ([1]; 1.0 equiv. Hydrobromic acid, MeOH): − (I-1 Form A) (Free form, counter ions, or physical mixtures)
- Salt screening result (slurry crystallization) ([1]; 1.0 equiv. L-aspartic acid, Acetone): − (physical mixtures (Free form, counter ions, or physical mixtures)
- Salt screening result (slurry crystallization) ([1]; 1.0 equiv. L-aspartic acid, Isopropyl acetate): − (physical mixtures (Free form, counter ions, or physical mixtures)
- Salt screening result (slurry crystallization) ([1]; 1.0 equiv. L-aspartic acid, MeOH): − (physical mixtures (Free form, counter ions, or physical mixtures)
- Salt screening result (slurry crystallization) ([1]; 1.0 equiv. L-glutamic acid, Acetone): − (physical mixtures (Free form, counter ions, or physical mixtures)
- Salt screening result (slurry crystallization) ([1]; 1.0 equiv. L-glutamic acid, Isopropyl acetate): − (physical mixtures (Free form, counter ions, or physical mixtures)
- Salt screening result (slurry crystallization) ([1]; 1.0 equiv. L-glutamic acid, MeOH): − (physical mixtures (Free form, counter ions, or physical mixtures)
- Salt screening result (slurry crystallization) ([1]; 1.0 equiv. L-malic acid, Acetone): thin suspension
- Salt screening result (anti-solvent) ([1]; 1.0 equiv. L-malic acid, Acetone/MTBE): −(I-1 Form B) (Free form, counter ions, or physical mixtures)
- Salt screening result (slurry crystallization) ([1]; 1.0 equiv. L-malic acid, Isopropyl acetate): − (I-1 Form A) (Free form, counter ions, or physical mixtures)
- Salt screening result (slurry crystallization) ([1]; 1.0 equiv. L-malic acid, MeOH): − (I-1 Form A) (Free form, counter ions, or physical mixtures)

Reference: patent US20260125374A1, “PI3K-ALPHA INHIBITORS AND METHODS OF MAKING AND USING THE SAME” (Relay Therapeutics, Inc., priority 2021, published 2026)
